Measured values: PubChem BioAssay AID248 (DTP/NCI, 2004)
Where “and” joins values, the source holds several entries; their conditions need not be identical. Equal entries are not always repeated. Inconclusive results and toxic doses are left out. Rule as the data show it: active = T/C of 150% or more; inactive = T/C below 125%.

Test system: L1210 leukemia ip in BDF1 mice, survival T/C
Assay: NCI In Vivo Anticancer Drug Screen. Data for tumor model L1210 Leukemia (intraperitoneal) in B6D2F1 (BDF1) mice
Conditions: endpoint: mean survival time, higher = longer survival
In short: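 Tumor cells were implanted, animals were treated, and survival was followed. The result divides the treated measurement by the vehicle-control measurement.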

[1] = dose: 100.0 mg/kg/injection, schedule: Q04DX003 (ip), vehicle: acetone
[2] = dose: 100.0 mg/kg/injection, schedule: Q01DX001 (ip), vehicle: saline
[3] = dose: 200.0 mg/kg/injection, schedule: Q01DX001 (ip), vehicle: saline
[4] = dose: 400.0 mg/kg/injection, schedule: Q01DX001 (ip), vehicle: saline
[5] = dose: 100.0 mg/kg/injection, schedule: Q04DX003 (ip), vehicle: saline
[6] = dose: 200.0 mg/kg/injection, schedule: Q04DX003 (ip), vehicle: saline
[7] = dose: 100.0 mg/kg/injection, schedule: Q01DX005 (ip), vehicle: saline
[8] = dose: 100.0 mg/kg/injection, schedule: Q04DX003 (ip), vehicle: Klucel (hydroxypropylcellulose) (HPC)
[9] = dose: 200.0 mg/kg/injection, schedule: Q01DX005 (ip), vehicle: saline
[10] = dose: 200.0 mg/kg/injection, schedule: Q04DX003 (ip), vehicle: Klucel (hydroxypropylcellulose) (HPC)
[11] = dose: 400.0 mg/kg/injection, schedule: Q04DX003 (ip), vehicle: Klucel (hydroxypropylcellulose) (HPC)
[12] = dose: 25.0 mg/kg/injection, schedule: Q01DX009 (ip), vehicle: Klucel (hydroxypropylcellulose) (HPC)
[13] = dose: 50.0 mg/kg/injection, schedule: Q01DX009 (ip), vehicle: Klucel (hydroxypropylcellulose) (HPC)
[14] = dose: 10.0 mg/kg/injection, schedule: Q01DX001 (ip), vehicle: saline
[15] = dose: 100.0 mg/kg/injection, schedule: Q01DX001 (ip), vehicle: Klucel (hydroxypropylcellulose) (HPC)
[16] = dose: 200.0 mg/kg/injection, schedule: Q01DX001 (ip), vehicle: Klucel (hydroxypropylcellulose) (HPC)
[17] = dose: 400.0 mg/kg/injection, schedule: Q01DX001 (ip), vehicle: Klucel (hydroxypropylcellulose) (HPC)

Measured: T/C

CC1CCN1c1ccccc1 (centres undefined)
inactive: [1] 88 % of control

C/C(=N/NC(N)=S)c1ccc(Cl)cc1
inactive: dose: 5.0 mg/kg/injection, schedule: Q01DX001 (ip), vehicle: other 105 % of control | dose: 10.0 mg/kg/injection, schedule: Q01DX001 (ip), vehicle: other 111 % of control

CC(O)(CC(=O)O)c1ccc([N+](=O)[O-])cc1 (centres undefined)
inactive: dose: 50.0 mg/kg/injection, schedule: Q01DX001 (ip), vehicle: saline 96 % of control | [2] 102 % of control | [3] 108 % of control | [4] 102 % of control

COC(=O)c1nc2ccc([N+](=O)[O-])cc2n1O
inactive: [2] 101 % of control | [3] 93 % of control | [4] 96 % of control

O=C(C[N+]12CCC(O)C1C(CO)CC2)c1ccc(Br)cc1 (centres undefined)
inactive: [5] 96 % of control | [6] 89 % of control

O=c1ccn(C2OC(CF)C(O)C2O)c(=O)[nH]1 (centres undefined)
inactive: [7] 104 % of control | [8] 106 % of control | [9] 104 % of control | [10] 110 % of control | [11] 101 % of control

CCOC(=O)CCC(NC(=O)C1CSC(C)(C)N1C=O)C(=O)OCC (centres undefined)
inactive: [5] 104 % of control | [6] 93 % of control | dose: 400.0 mg/kg/injection, schedule: Q04DX003 (ip), vehicle: saline 98 % of control

COc1cc2[nH]c(=O)c3cccn3c(=O)c2cc1OC
inactive: dose: 50.0 mg/kg/injection, schedule: Q04DX002 (ip), vehicle: other 102 % of control | dose: 100.0 mg/kg/injection, schedule: Q04DX002 (ip), vehicle: other 105 % of control | dose: 200.0 mg/kg/injection, schedule: Q04DX002 (ip), vehicle: other 94 % of control

CCOC=Nc1c(N)ncnc1Cl
inactive: dose: 125.0 mg/kg/injection, schedule: Q01DX Z (ip), vehicle: other 93 % of control | dose: 250.0 mg/kg/injection, schedule: Q01DX Z (ip), vehicle: other 93 % of control | dose: 500.0 mg/kg/injection, schedule: Q01DX Z (ip), vehicle: other 103 % of control

CN=C(Nc1ccc(Cl)c(Cl)c1)C(C)C
inactive: dose: 6.25 mg/kg/injection, schedule: Q04DX002 (ip), vehicle: DMSO 98 % of control | dose: 12.5 mg/kg/injection, schedule: Q04DX002 (ip), vehicle: DMSO 95 % of control | dose: 25.0 mg/kg/injection, schedule: Q04DX002 (ip), vehicle: DMSO 94 % of control and 106 % of control | dose: 44.0 mg/kg/injection, schedule: Q01DX Z (ip), vehicle: methylcellulose (MC) 91 % of control | dose: 50.0 mg/kg/injection, schedule: Q04DX002 (ip), vehicle: DMSO 97 % of control | dose: 66.0 mg/kg/injection, schedule: Q01DX Z (ip), vehicle: methylcellulose (MC) 98 % of control | dose: 100.0 mg/kg/injection, schedule: Q01DX Z (ip), vehicle: methylcellulose (MC) 101 % of control

O=C(COc1cccc(Cl)c1)Nc1cccnc1
inactive: dose: 12.0 mg/kg/injection, schedule: Q01DX009 (ip), vehicle: Klucel (hydroxypropylcellulose) (HPC) 89 % of control | [12] 98 % of control | [13] 92 % of control | [8] 93 % of control | [10] 103 % of control | dose: 400.0 mg/kg/injection, schedule: Q01DX009 (ip), vehicle: Klucel (hydroxypropylcellulose) (HPC) 87 % of control

CC1CCCN(C(=S)[S-])C1.CC1CCCN(C(=S)[S-])C1.[Zn] (centres undefined)
inactive: dose: 1.25 mg/kg/injection, schedule: Q01DX009 (ip), vehicle: saline 88 % of control | dose: 2.5 mg/kg/injection, schedule: Q01DX009 (ip), vehicle: saline 86 % of control | dose: 2.5 mg/kg/injection, schedule: Q04DX003 (ip), vehicle: acetone 91 % of control | dose: 5.0 mg/kg/injection, schedule: Q04DX003 (ip), vehicle: acetone 88 % of control | [14] 96 % of control | dose: 10.0 mg/kg/injection, schedule: Q04DX003 (ip), vehicle: acetone 88 % of control | dose: 10.0 mg/kg/injection, schedule: Q04DX003 (ip), vehicle: saline 86 % of control

CC(C)=CC(=O)OC1C2C(CC(C)C3C(O)CC(=O)C13C)OC(=O)C2C (centres undefined)
inactive: [2] 107 % of control | [3] 100 % of control | [4] 97 % of control

CC(C)C(Br)C(=O)NCC(=O)O (centres undefined)
inactive: dose: 100.0 mg/kg/injection, schedule: Q04DX003 (ip), vehicle: saline with Tween-80 102 % of control | dose: 200.0 mg/kg/injection, schedule: Q04DX003 (ip), vehicle: saline with Tween-80 98 % of control | dose: 400.0 mg/kg/injection, schedule: Q04DX003 (ip), vehicle: saline with Tween-80 98 % of control

CCOP(=O)(SCC)N(CC)CC (centres undefined)
inactive: dose: 5.0 mg/kg/injection, schedule: Q01DX001 (ip), vehicle: saline 108 % of control | [14] 104 % of control | dose: 20.0 mg/kg/injection, schedule: Q01DX001 (ip), vehicle: saline 104 % of control | dose: 40.0 mg/kg/injection, schedule: Q01DX001 (ip), vehicle: saline 115 % of control | dose: 80.0 mg/kg/injection, schedule: Q01DX001 (ip), vehicle: saline 106 % of control

COc1cc2c(cc1OC)C1CCN3CCCC3N1CC2 (centres undefined)
inactive: [12] 102 % of control | [13] 96 % of control | dose: 100.0 mg/kg/injection, schedule: Q01DX009 (ip), vehicle: Klucel (hydroxypropylcellulose) (HPC) 98 % of control | [8] 96 % of control

COC(=O)CNC(=O)c1cccc([N+](=O)[O-])c1
inactive: [2] 96 % of control | [3] 94 % of control | [4] 97 % of control

c1cc[c]([Sn]([S]c2ccccn2)([c]2ccccc2)[c]2ccccc2)cc1
inactive: dose: 6.25 mg/kg/injection, schedule: Q04DX002 (ip), vehicle: saline with Tween-80 93 % of control | dose: 12.5 mg/kg/injection, schedule: Q04DX002 (ip), vehicle: saline with Tween-80 93 % of control | dose: 25.0 mg/kg/injection, schedule: Q04DX002 (ip), vehicle: saline with Tween-80 108 % of control

CC(C(O)c1ccccc1)C(O)(C(F)(F)Cl)C(F)(F)Cl (centres undefined)
inactive: [15] 102 % of control | [8] 98 % of control | [16] 102 % of control | [10] 88 % of control | [17] 107 % of control | [11] 114 % of control

COc1ccc(-c2ccc(CC(N)=O)cc2)cc1Cl
inactive: dose: 100.0 mg/kg/injection, schedule: Q01DX001 (ip), vehicle: carboxymethylcellulose (CMC) 91 % of control | dose: 200.0 mg/kg/injection, schedule: Q01DX001 (ip), vehicle: carboxymethylcellulose (CMC) 94 % of control | dose: 400.0 mg/kg/injection, schedule: Q01DX001 (ip), vehicle: carboxymethylcellulose (CMC) 89 % of control

C#CCCCCCC#CCCCCCC#CCCCCCC#C
inactive: [1] 94 % of control | dose: 200.0 mg/kg/injection, schedule: Q04DX003 (ip), vehicle: acetone 95 % of control

O=c1[nH]c2ccccc2c(=O)n1C1CCCCC1
inactive: dose: 25.0 mg/kg/injection, schedule: Q01DX009 (ip), vehicle: water 96 % of control | dose: 50.0 mg/kg/injection, schedule: Q01DX009 (ip), vehicle: water 94 % of control | dose: 100.0 mg/kg/injection, schedule: Q01DX009 (ip), vehicle: water 103 % of control | dose: 200.0 mg/kg/injection, schedule: Q01DX009 (ip), vehicle: water 98 % of control | dose: 400.0 mg/kg/injection, schedule: Q01DX009 (ip), vehicle: water 101 % of control

CC1(C)N=C(N)N=C(N)N1c1ccc(CC(CCc2ccccc2)C(=O)Nc2ccc(S(=O)(=O)F)cc2)cc1 (centres undefined)
inactive: [15] 90 % of control | [16] 97 % of control | [17] 90 % of control

CC1CN=C(c2ccc(O)cc2)S1 (centres undefined)
inactive: dose: 50.0 mg/kg/injection, schedule: Q01DX009 (ip), vehicle: saline 102 % of control | [7] 104 % of control | dose: 100.0 mg/kg/injection, schedule: Q01DX009 (ip), vehicle: saline 106 % of control | dose: 100.0 mg/kg/injection, schedule: Q04DX002 (ip), vehicle: saline 96 % of control | [9] 104 % of control | dose: 200.0 mg/kg/injection, schedule: Q01DX009 (ip), vehicle: saline 102 % of control | dose: 200.0 mg/kg/injection, schedule: Q04DX002 (ip), vehicle: saline 104 % of control | dose: 400.0 mg/kg/injection, schedule: Q04DX002 (ip), vehicle: saline 107 % of control
